Measured values from patent US7550451B2, “Progesterone receptor modulators with increased antigonadotropic activity for female birth control and hormone replacement therapy” (Bayer Schering Pharma AG, priority 2002, dated 2009).

Molecular target: T1, Androgen receptor (Rattus norvegicus, UniProt P15207)
T1 construct: Prostate cytosol of the castrated rat; from tissue; host or cells: prostate cytosol of castrated rat
T1 sequence (P15207 1-902): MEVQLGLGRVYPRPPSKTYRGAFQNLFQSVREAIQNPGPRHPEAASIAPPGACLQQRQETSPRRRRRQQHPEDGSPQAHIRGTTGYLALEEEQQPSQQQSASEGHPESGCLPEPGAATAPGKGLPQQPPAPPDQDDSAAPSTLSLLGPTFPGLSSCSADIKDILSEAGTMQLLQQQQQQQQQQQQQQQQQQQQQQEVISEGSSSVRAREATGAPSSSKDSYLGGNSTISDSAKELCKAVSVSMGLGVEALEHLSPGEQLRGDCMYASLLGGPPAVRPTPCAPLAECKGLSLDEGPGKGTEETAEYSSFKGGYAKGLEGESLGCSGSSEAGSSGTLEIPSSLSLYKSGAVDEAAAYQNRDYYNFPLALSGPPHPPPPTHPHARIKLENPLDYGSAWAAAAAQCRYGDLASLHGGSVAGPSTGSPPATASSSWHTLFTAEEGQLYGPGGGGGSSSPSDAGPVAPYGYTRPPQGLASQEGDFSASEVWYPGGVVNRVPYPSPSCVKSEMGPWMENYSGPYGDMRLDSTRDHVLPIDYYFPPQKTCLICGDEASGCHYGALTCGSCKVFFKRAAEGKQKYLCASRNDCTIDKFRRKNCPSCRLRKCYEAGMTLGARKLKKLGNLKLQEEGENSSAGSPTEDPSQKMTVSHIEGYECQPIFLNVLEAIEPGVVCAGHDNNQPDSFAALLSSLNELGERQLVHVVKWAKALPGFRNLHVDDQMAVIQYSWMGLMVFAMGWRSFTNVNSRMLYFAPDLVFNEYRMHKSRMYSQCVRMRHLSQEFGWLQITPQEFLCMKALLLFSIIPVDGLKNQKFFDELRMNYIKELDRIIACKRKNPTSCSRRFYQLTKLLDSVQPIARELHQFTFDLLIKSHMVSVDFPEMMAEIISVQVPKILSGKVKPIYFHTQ
Assay: Receptor binding affinity, androgen receptor (competitive binding, 3H-metribolone)
Conditions: prostate cytosol of castrated rat; for AR relative molar binding affinity (RBA) a) against RU 1881: reference RU 1881 (metribolone); for AR relative molar binding affinity (RBA) b) against dihydrotestosterone (DHT): reference dihydrotestosterone
Protocol: The receptor binding affinity was determined by competitive binding of a specifically binding ^3H-labeled hormone (tracer) and the compound to be tested on receptors in the cytosol from animal target organs. In this case, receptor saturation and reaction equilibrium were sought.
The tracers and increasing concentrations of the compound to be tested (competitor) were co-incubated with the receptor-containing cytosol fraction at 0-4° C. over 18 hours. After separation of the unbonded tracer with carbon-dextran suspension, the receptor-bonded tracer portion was measured for each concentration, and the IC50 was determined from the concentration sequence. As a quotient of the IC50 values of the reference substance and the compound to be tested (×100%), the relative molar binding affinity (RBA) was calculated (RBA of the reference substance=100%).
Prostate cytosol of the castrated rat; prostates stored at −30° C.; buffer: TED with 10% glycerol as well as 2 μmol of triamcinolone acetonide. Tracer: ^3H-metribolone 4 nmol; reference substances: metribolone (RU 1881) or 5α-dihydrotestosterone.

C[C@]12C[C@H](c3ccc(/C=N/O)cc3)C3=C4CCC(=O)C=C4CC[C@H]3[C@@H]1CC[C@@H]2O [Example 1, 4-(17β-Hydroxy-3-oxoestra-4,9-dien-11β-yl)benzaldehyde-1(E)-oxime]
AR relative molar binding affinity (RBA) a) against RU 1881: a) 17% | AR relative molar binding affinity (RBA) b) against dihydrotestosterone (DHT): b) 24%

CC1(O)CCC2C3CCC4=CC(=O)CCC4=C3C(c3ccc(C=NO)cc3)CC21C (stereo not drawn) [Example 2, 4-(17β-Hydroxy-17α-methyl-3-oxoestra-4,9-dien-11β-yl)benzaldehyde-1(E)-oxime]
AR relative molar binding affinity (RBA) a) against RU 1881: a) 16% | AR relative molar binding affinity (RBA) b) against dihydrotestosterone (DHT): b) 23%
